The record followed here is PubChem BioAssay (NCI).

What all share (assay): DTP human tumour cell line panel, 48 h
In assay [1] the test system is MOLT-4 leukemia.
Assay [2] concerns NCI-H460 lung.
In assay [3] the test system is NCI-H226 lung.
Assay [4] deals with 786-0 renal.
Assay [5] deals with HS 578T breast.
Assay [6] relates to A549 NSCLC.
For assay [7], the system named is TK-10 renal.
Assay [8] deals with CCRF-CEM leukemia.
The subject of assay [9] is HCC-2998 colon.
For assay [10], the system named is K-562 leukemia.
Assay [11] deals with HT29 colon.
For assay [12], the system named is SR leukemia.
The subject of assay [13] is LOX IMVI melanoma.
The subject of assay [14] is SF-539 CNS.
In assay [15] the test system is OVCAR-8 ovarian.
For assay [16], the system named is HL-60(TB) leukemia.
In assay [17] the test system is SK-MEL-5 melanoma.
For assay [18], the system named is MDA-MB-231 breast.
In assay [19] the test system is DU-145 prostate.

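Briefly, cells in 96-well plates were exposed to five compound concentrations for 48 h, and endpoints were estimated by linear interpolation. TGI: total growth inhibition.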 A value given as a limit tells only on which side of the number the result lay.

By TGI is commonly meant the concentration giving total growth inhibition. A high value points to less potent growth arrest. On to `Cc1nc2c(O)cccc2c(=O)[nH]1`, for which the TGI in [1], in [2], in assay [3], in [4], in assay [5] and in assay [6] was above 1000 µM in each case. The TGI in assay [7], in [8], in assay [9], in [10], in [11] and in assay [12] was above 1000 µM throughout. For the same compound, the TGI in assay [13] was above 1000 µM; in assay [14], above 1000 µM; in assay [15], above 1000 µM; in [16], 471 µM.
On to `COc1nc(/C=N/NC(N)=S)nc(OC)n1`, for which the TGI in assay [1], in assay [2], in assay [3], in assay [4], in assay [6] and in assay [7] was above 100 µM in each case. Also, the TGI in assay [9], in [10], in assay [11], in assay [12], in [14] and in [15] was above 100 µM each time. This compound came in with a TGI in assay [16] above 100 µM.
`Cc1ccc(C2(C)NC(=S)N(NC(N)=S)C2=S)cc1` (centres undefined): the TGI in assay [1], in assay [2], in assay [3], in [17], in assay [4] and in assay [6] was above 100 µM throughout. Besides, the TGI in [7], in assay [8], in assay [9], in assay [10], in assay [12] and in assay [13] was above 100 µM each time. Further, the TGI in [14], in assay [15] and in [16] was above 100 µM each time.
Take `CC(N)C(=O)c1ccc(O)cc1` (centres undefined): the TGI in assay [1], in assay [2], in [3], in [17], in [4] and in [6] was above 100 µM in each case. Moreover, the TGI in [7], in assay [8], in assay [9], in assay [10], in [11] and in assay [13] was above 100 µM each time. In addition, the TGI in assay [14], in assay [15] and in assay [16] was above 100 µM throughout.
Consider `Cc1c2ccccc2c(CO)c2cc(F)c3ccccc3c12`, for which the TGI in assay [1] was 39.6 µM; in [3], above 100 µM; in assay [17] it was above 100 µM; in assay [6], above 100 µM; in [7], 71.8 µM; in [8], 68 µM. Further, the TGI in [9] is above 100 µM; in assay [10], above 100 µM; in assay [11], 49 µM; in assay [12] it was 70.7 µM; in assay [13] it was 36.1 µM; in [14] it was above 100 µM. Moreover, the TGI in [15] stood at 41.4 µM; in assay [16], 61 µM.
For `Cc1c(/C=N/NC(=O)c2ccccc2)c(=O)n(-c2ccccc2)n1C`, the TGI in assay [1], in assay [2], in [3], in [4], in assay [6] and in [7] was above 100 µM throughout. Also, the TGI in [8], in assay [9], in [10], in [11], in assay [12] and in assay [13] was above 100 µM in each case. The TGI in [14], in assay [15] and in assay [16] was above 100 µM in each case.
For the compound `O=C(O)Cn1nnc2c(=O)[nH][nH]c(=O)c21`, the TGI is above 10 µM in [1]; above 100 µM in assay [2]; above 100 µM in assay [18]; above 100 µM in [19]; above 100 µM in assay [17]; above 100 µM in assay [4]. The TGI in assay [6] was above 100 µM; in assay [7] it was above 100 µM; in assay [8], above 100 µM; in assay [9], above 100 µM; in assay [10], above 10 µM; in assay [11], above 100 µM. For the same compound, the TGI in [12], in assay [13], in assay [15] and in [16] was above 100 µM in each case.
In the case of `Cc1ccc(S(=O)(=O)NC(=O)C2(Br)S(=O)(=O)OCCOS2(=O)=O)cc1`, the concentration for total growth inhibition (TGI) in [1], in assay [2], in assay [3], in assay [17], in [4] and in assay [6] was above 100 µM in each case. Also, the TGI in assay [7], in assay [8], in assay [9], in assay [10], in assay [11] and in assay [12] was above 100 µM in each case. In addition, the TGI in assay [13], in assay [14], in assay [15] and in assay [16] was above 100 µM throughout.
`Cc1ccc(S(=O)(=O)c2c(N)c3nccn3c3nc4ccccc4nc23)cc1`: the total growth inhibition concentration (TGI) in assay [1], in assay [2], in [17], in assay [4], in assay [6] and in assay [7] was above 100 µM in each case. Also, the TGI in assay [8], in assay [9], in assay [10], in [12], in assay [13] and in assay [14] was above 100 µM each time. Also, the TGI in [15] and in assay [16] was above 100 µM in each case.
